Data: paper PMC12195231, “Afil, a Lectin from Aplysina fistularis, Exhibits Antibiofilm and Synergistic Antibacterial Activity Against Resistant Bacteria” (Microorganisms, 2025)
pKd: −log10 of the molar value.

Molecular target: T1, AfiL
T1 construct: native, purified from sponge tissue (ammonium sulfate, Sepharose 4B, lactose elution); 70 kDa disulfide-linked dimer, ~30 kDa subunits; internal stretch […]
Assay: isothermal titration calorimetry
Assay type: binding, Aplysina fistularis
Details: TBS (20 mM Tris-HCl pH 7.6, 150 mM NaCl), 25 °C; one-set-of-sites model

pKd: 4.99
Compound: OC[C@H]1O[C@@H](O[C@H]2[C@H](O)[C@@H](O)C(O)O[C@@H]2CO)[C@H](O)[C@@H](O)[C@H]1O (stereo partly drawn) [D-lactose]
